Laboratory results reported in publication PMC12559140 (Molecular Neurobiology, 2025).
Several values for one entry are separate records, joined by “and”; a condition that tells them apart may be missing. Equal entries are not always repeated. Entries after “also recorded” stand apart in the source; their conditions may differ. Where two headings read alike, the source gives them in different places.

Legend:
(d)-SH-SY5Y cells [1] = assay: Cell viability (MTT), H2O2 alone or co-treatment with H2O2 and drugs; conditions: for cell viability compared to H2O2 alone: 10 μM drug + 250 µM H2O2, 24 h
Procedure: (§1) Cells were cultured under standard conditions and used for experiments between passages 5 and 20 to maintain phenotypic consistency and avoid passage-related variability. To ensure the validity of the experimental data and avoid confounding effects, the cell line was routinely tested for Mycoplasma contamination using a PCR-based Mycoplasma detection kit (MycoFluor™ Mycoplasma Detection Kit, Thermo Fisher Scientific). […] Differentiated cells were plated at 1.0 × 10^4 cell/cm^2 confluency and treated with retinoic acid (RA) (R2625-50MG, Sigma Aldrich) at a 10 µM concentration in DMEM/F12 1% FBS for 6 days with RA pulses on every other day. The (d)-SH-SY5Y cells with acquired neuronal properties were used in our experiments involving toxin application and drug treatments.
(§2) (d)-SH-SY5Y cells were cultured in collagen-coated 96-well plates (1.0 × 10^4 cell/well). […] The appropriate dose and time for H2O2 used in our study were determined according to the findings obtained in a preliminary study. Data are expressed as a percentage of cell viability compared to control cultures.

cleaved caspase-3 = assay: Cleaved caspase-3 ELISA in H2O2-treated cells; format: cell-based, human; conditions: 250 μM H2O2 alone (vs untreated) or with CNI (vs H2O2 alone), 24 h, n = 2
Procedure: The quantification of cleaved caspase-3 levels in cell lysates was performed using a commercially available human cleaved caspase-3 ELISA kit (E6970HU, BT Lab), according to the manufacturer’s instructions. SH-SY5Y cells were seeded in collagen-coated 6-well plates (1.0 × 10^5 cell/well) and differentiated. Cells were exposed to 250 μM H2O2 in the presence or absence of CNI compounds for 24 h. Following treatment, cells were collected, diluted with PBS, and destroyed by multiple freeze–thaw cycles, both treated and untreated. The levels of cleaved caspase-3 in the cell lysates were measured in the order recommended by the manufacturer. The BCA assay (44,132, Expedeon) was used to compare the total protein contents in treated and untreated cells.

(d)-SH-SY5Y cells [2] = assay: Neurite analysis by microscopy (NeuronJ/ImageJ); format: cell-based, human; conditions: 250 µM H2O2 alone or with 0.1 µM drug
Procedure: SH-SY5Y cells were cultivated on collagen-coated 6-well plates at a density of 1.0 × 10^5 cells/well. Following the differentiation and treatments, microscopic examination of the cell groups was assessed using an inverted microscope (Zeiss Axio) at × 20 objective. Images were taken with multiple independent images for an individual treatment. Images were analyzed for neurite lengths and the number of homogeneous neurites per cell by NeuronJ of ImageJ software; soma size was determined by the Neurphology plugin of ImageJ [46]. Cells with cell extensions longer than twice the cell body diameter were considered neurite-bearing cells. 100 cells were counted from 10 different areas selected to determine neurite density (number of neurites per cell) and neurite length for each sample. The data were expressed as the mean ± SEM from three independent experiments.

AChE mRNA = AChE mRNA expression by qRT-PCR; format: cell-based; conditions: 250 µM H2O2 alone (vs control) or with 0.1 µM drug (vs H2O2 alone), 24 h, 2^−ΔΔCt, GAPDH
Procedure: SH-SY5Y cells were cultivated on collagen-coated 6-well plates at a density of 1.0 × 10^5 cells/well. […]. The purity and concentration of the isolated RNA were assessed by measuring absorbance at 260 nm and 280 nm. cDNA was synthesized from 1 μg of total RNA using the OneScript Plus cDNA Synthesis Kit (G236, Abmgood). Subsequent to cDNA synthesis, quantitative real-time PCR (qRT-PCR) was conducted on a Roche Light Cycler 96 real-time PCR System utilizing the SYBR Green PCR Kit BlasTaq 2X qPCR MasterMix (G891, Abmgood) according to established protocols. All amplification reactions for each sample were performed in triplicate, and the experiments were repeated at least three times. The relative mRNA expression levels were quantified using the 2^−ΔΔCt method, normalizing the data against glyceraldehyde-3-phosphate dehydrogenase (GAPDH). Primer sequences are listed as follows: GAPDH forward, 5′-[…]-3′ and reverse, 5′-[…]-3′; AChE forward, 5′-[…]-3′ and reverse, 5′-[…]-3′.

AChE [3] = biological target: T1, AChE (Homo sapiens, UniProt P22303); assay: Cellular AChE activity (ELISA); format: cell-based; design: To extract the total protein from the treated (d)-SH-SY5Y cells; endogenous in cells; host or cells: differentiated SH-SY5Y (human neuroblastoma); conditions: (d)-SH-SY5Y
Procedure: SH-SY5Y cells were cultivated on collagen-coated 6-well plates at a density of 1.0 × 10^5 cells/well. […] To extract the total protein from the treated (d)-SH-SY5Y cells, the cultures were rinsed twice with cold phosphate-buffered saline (PBS), followed by scraping to collect the cells. The resulting cell suspension was transferred to 1.5 mL tubes, which were then centrifuged at 10,000 × g for 5 min at 4 °C. The supernatant was carefully discarded, and the cell pellets were lysed using RIPA buffer. The total protein concentration present in the extracts was quantified using the Bicinchoninic Acid (BCA) assay. Any remaining protein was stored at − 80 °C until the time of enzymatic analysis. Relative AChE activity was determined using an equal amount of total protein and employing an Enzyme-Linked Immunosorbent Assay (ELISA) (Human AchE (Acetylcholinesterase) Kit, ELK4614-96 T), following the manufacturer’s guidelines.

AChE [4] = biological target: T1, AChE; assay: biochemical
Procedure: The inhibition of AChE activity in vitro was evaluated following the methodology outlined by Ellman et al., with some modifications implemented. […] The enzyme activity was expressed as a percentage relative to a control assay conducted without any inhibitor. The percentage inhibition of AChE activity was determined by comparing the absorbance values with those of the negative control, using the following equation:
AChE inhibition % = ((A0 − A1)/A0) × 100.
In this equation, A0 represents the absorbance of the control lacking the sample, while A1 indicates the absorbance of the sample tested.
Dose–response curves were generated and analyzed using GraphPad Prism version 8.0, applying a sigmoidal dose–response model with variable slope (four-parameter logistic regression). IC50 values were derived from the fitted curves and are expressed in micromolar (µM).

[5] = Cell viability (MTT), drugs alone; conditions: human
Procedure: as §1, §2

SH-SY5Y cells = conditions: cited from earlier work
(d)-SH-SY5Y cells [6] = assay: Cell viability (MTT), drugs alone; conditions: 0.01–10 μM, (d)-SH-SY5Y, no oxidative stress
Procedure: as §1, §2

[7] = 0.1 μM drug + 250 µM H2O2, 24 h, vs H2O2 alone

T1 sequence (P22303 32-614): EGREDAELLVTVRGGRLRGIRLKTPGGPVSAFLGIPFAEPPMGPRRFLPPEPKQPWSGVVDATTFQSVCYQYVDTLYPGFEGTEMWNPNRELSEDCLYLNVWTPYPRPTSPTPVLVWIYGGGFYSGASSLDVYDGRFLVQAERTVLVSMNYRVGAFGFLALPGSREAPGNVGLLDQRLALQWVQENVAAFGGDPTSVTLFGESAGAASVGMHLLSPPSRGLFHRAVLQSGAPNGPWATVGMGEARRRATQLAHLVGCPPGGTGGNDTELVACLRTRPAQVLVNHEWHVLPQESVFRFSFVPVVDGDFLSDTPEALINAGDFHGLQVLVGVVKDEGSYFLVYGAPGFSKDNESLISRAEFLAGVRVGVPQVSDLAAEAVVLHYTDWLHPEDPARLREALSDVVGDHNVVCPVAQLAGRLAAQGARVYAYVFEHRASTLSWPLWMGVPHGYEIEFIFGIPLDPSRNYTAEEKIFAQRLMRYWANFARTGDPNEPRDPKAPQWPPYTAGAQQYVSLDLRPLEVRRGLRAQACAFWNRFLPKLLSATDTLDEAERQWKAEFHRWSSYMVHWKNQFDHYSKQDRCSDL

| Structure (SMILES) | caspase-3 levels (cleaved caspase-3) | Neurite index (neurite/cell) ((d)-SH-SY5Y cells [2]) | Neurite length ((d)-SH-SY5Y cells [2]) | AChE mRNA expression (AChE mRNA) | IC50 (AChE [4]) [µM] | viability at 24 h, 1 µM [5] [%] | viability at 24 h, 10 µM [5] [%] | protective effect on cell viability against H2O2 ((d)-SH-SY5Y cells [1]; [7]) | cell viability compared to H2O2 alone ((d)-SH-SY5Y cells [1]) | also measured |
| --- | --- | --- | --- | --- | --- | --- | --- | --- | --- | --- |
| OO [H2O2] | significant increase in caspase-3 levels | 0.8 ± 0.2 neurite/cell and 0.8 ± 0.2*^p=0.001 neurite/cell | 39.6 ± 6.3 μm and 39.6 ± 6.3*^p=0.001 μm | significant upregulation of AChE mRNA expression | – | – | – | – | – | average cell viability ((d)-SH-SY5Y cells [1]; 250 µM H2O2 alone, 24 h, compared to the control group): 57.8 ± 5%; increase of AChE activity compared to the control (AChE [3]; 250 μM H2O2 alone, 24 h): 1.45 fold |
| C=CC[C@@H]1/C=C(\C)C[C@H](C)C[C@H](OC)[C@H]2O[C@@](O)(C(=O)C(=O)N3CCCC[C@H]3C(=O)O[C@H](/C(C)=C/[C@@H]3CC[C@@H](O)[C@H](OC)C3)[C@H](C)[C@@H](O)CC1=O)[C@H](C)C[C@@H]2OC [Tac, Tacrolimus] | did not significantly modulate caspase-3 expression | 1.2 ± 0.1 neurite/cell | 34.5 ± 3.5 μm | significantly reduced AChE mRNA levels | 4.24 ± 0.1 | 55.2 ± 2.5 | 50.1 ± 2 | not statistically significant | significantly reduced cell viability | – |
| COc1ccc2c3c1O[C@H]1C[C@@H](O)C=C[C@@]31CCN(C)C2 [Gal, Galantamine] | – | – | – | – | – | – | – | – | – | reduction in viability (SH-SY5Y cells; 1.25 mg/mL): 17%; CC50 (SH-SY5Y cells): ~5000 µM; concentrations at which cell viability remained comparable to controls (SH-SY5Y cells): up to 10 μM; concentrations with significant reductions in viability (SH-SY5Y cells): ≥ 100 µM; concentrations with no cytotoxic effect (SH-SY5Y cells; differentiated SH-SY5Y cells): up to 50 μM |
| C=C/C=C/C[C@@H](C)[C@@H](O)[C@H]1C(=O)N[C@@H](CC)C(=O)N(C)CC(=O)N(C)[C@@H](CC(C)C)C(=O)N[C@@H](C(C)C)C(=O)N(C)[C@@H](CC(C)C)C(=O)N[C@@H](C)C(=O)N[C@H](C)C(=O)N(C)[C@@H](CC(C)C)C(=O)N(C)[C@@H](CC(C)C)C(=O)N(C)[C@@H](C(C)C)C(=O)N1C [Voc, Voclosporin] | significantly attenuated this increase | 1.3 ± 0.3^#p=0.02 neurite/cell | 45.4 ± 5.5^#p=0.04 μm | significantly reduced AChE mRNA levels | – | 75.5 ± 4.8 | 62.1 ± 3.6 | significantly increasing cell viability compared to the H2O2-only group | further decrease in cell viability; also recorded: significantly reduced cell viability | AChE inhibitory effect compared to galantamine (AChE [4]; 0.01 µM): higher AChE inhibitory effect compared to galantamine; IC50 (AChE [4]; read-out: IC50 against AChE, recombinant human AChE, Ellman method, 0.01–10 µM, four-parameter fit): 0.004 ± 0.0002 µM; AChE activity (AChE [3]; 0.1 μM drug + 250 μM H2O2, 24 h): 96.3 ± 2.3% |
| CC[C@@H]1/C=C(\C)C[C@H](C)C[C@H](OC)[C@H]2O[C@@](O)(C(=O)C(=O)N3CCCC[C@H]3C(=O)O[C@H](/C(C)=C/[C@@H]3CC[C@H](Cl)[C@H](OC)C3)[C@H](C)[C@@H](O)CC1=O)[C@H](C)C[C@@H]2OC [Pim, Pimecrolimus] | significantly attenuated this increase | 1.1 ± 0.3 neurite/cell | 39.8 ± 5.7 μm | significantly reduced AChE mRNA levels | 2.15 ± 0.1 | – | – | – | – | cytotoxicity of drug alone ((d)-SH-SY5Y cells [6]): did not show detectable cytotoxicity; protective effect on cell viability against H2O2 ((d)-SH-SY5Y cells [1]; 1 µM drug + 250 µM H2O2, 24 h): best protected cell viability |
